For 21 compounds, IC50 results are on record in patent US20220089592A1, “IMIDAZO[1,2-A]PYRIDINYL DERIVATIVES AS IRAK4 INHIBITORS” (priority 2019, published 2022).

Assay [1] concerns the target T1, IRAK4 (Homo sapiens, UniProt Q9NWZ3).
T1 sequence (Q9NWZ3 1-460): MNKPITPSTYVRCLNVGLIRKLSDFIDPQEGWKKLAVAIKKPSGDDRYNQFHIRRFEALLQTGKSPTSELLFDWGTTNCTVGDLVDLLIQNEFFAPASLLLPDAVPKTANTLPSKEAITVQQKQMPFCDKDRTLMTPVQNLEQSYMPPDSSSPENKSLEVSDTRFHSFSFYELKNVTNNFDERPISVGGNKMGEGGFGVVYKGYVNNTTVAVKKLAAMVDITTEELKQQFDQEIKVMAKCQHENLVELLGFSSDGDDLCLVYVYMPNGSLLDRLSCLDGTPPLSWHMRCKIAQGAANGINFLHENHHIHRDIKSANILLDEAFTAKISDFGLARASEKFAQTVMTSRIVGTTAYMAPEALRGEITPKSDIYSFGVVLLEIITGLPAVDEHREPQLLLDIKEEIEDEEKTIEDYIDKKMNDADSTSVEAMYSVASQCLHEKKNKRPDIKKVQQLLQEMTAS
Description: 2-hour 1 mM ATP IRAK4 Biochemical assay (as above, but with 100 pM IRAK4 and 1 mM ATP). The conditions noted are these: IRAK4 MSD BIOCHEMICAL (1 mM ATP) IC50 (μM), 100 pM IRAK4, 2 hours. The method, boiled down: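 Run with 100 pM IRAK4 and 1 mM ATP for 2 hours, quenched with EDTA pH 8. Phosphorylated biotinylated peptide captured on streptavidin MSD plates and detected with anti-phosphothreonine antibody plus Sulfo-Tag secondary by electrochemiluminescence.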

In assay [2] the target is T1, IRAK4. The assay can be described thus: 2-hour 10 μM ATP Biochemical Assay (MesoScale Detection format; IRAK4 phosphorylation of biotin labeled IRAK1 activation loop peptide). As to conditions: IRAK4 MSD BIOCHEMICAL (10 μM ATP) IC50 (μM), 1 nM IRAK4, 2 hours. The procedure, abridged: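 Kinase reaction run 2 h at 10 μM ATP with biotinylated IRAK1 activation-loop peptide, quenched with EDTA. Phospho-peptide captured on streptavidin MSD plates and detected with anti-phosphothreonine rabbit antibody plus Sulfo-Tag anti-rabbit electrochemiluminescence.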

In the case of `CCOc1cc2nc(C(F)(F)CCOC)cn2cc1NC(=O)c1cccc(C(F)F)n1` [Example 149, N-(2-(1,1-difluoro-3-methoxypropyl)-7-ethoxyimidazo[1,2-a]pyridin-6-yl)-6-(difluoromethyl)picolinamide], the IC50 at IRAK4 [1] was found to be 0.003 µM; at IRAK4 [2], 0.002 µM.
The corresponding values for `CCOc1cc2nc(C3CCSC3)cn2cc1NC(=O)c1cccc(C(F)F)n1` (stereo not drawn) [Example 150, 6-(difluoromethyl)-N-(7-ethoxy-2-(tetrahydrothiophen-3-yl)imidazo[1,2-a]pyridin-6-yl)picolinamide] are 0.002 µM and 0.001 µM.
As to `CCOc1cc2nc(CC3CCOCC3)cn2cc1NC(=O)c1cccc(C(F)F)n1` [Example 151, 6-(difluoromethyl)-N-(7-ethoxy-2-((tetrahydro-2H-pyran-4-yl)methyl)imidazo[1,2-a]pyridin-6-yl)picolinamide], the IC50 was found to be 0.002 µM on IRAK4 [1] and 0.001 µM against IRAK4 [2].
Taken in the same sequence, the figures for `CCOc1cc2nc(C(C)(C)C#N)cn2cc1NC(=O)c1cccc(C(F)F)n1` [Example 152, N-(2-(2-cyanopropan-2-yl)-7-ethoxyimidazo[1,2-a]pyridin-6-yl)-6-(difluoromethyl)picolinamide] were 0.004 µM and 0.004 µM.
Regarding `CCOc1cc2nc(C34CC(OC)(C3)C4)cn2cc1NC(=O)c1cccc(C(F)F)n1` [Example 153, 6-(difluoromethyl)-N-(7-ethoxy-2-(3-methoxybicyclo[1.1.1]pentan-1-yl)imidazo[1,2-a]pyridin-6-yl)picolinamide], the IC50 on IRAK4 [1] and at IRAK4 [2] was 0.001 µM each time.
With `CCOc1cc2nc(CC3CCOC3)cn2cc1NC(=O)c1ccn(C)n1` (stereo not drawn) [Example 155, N-(7-ethoxy-2-((tetrahydrofuran-3-yl)methyl)imidazo[1,2-a]pyridin-6-yl)-1-methyl-1H-pyrazole-3-carboxamide], the IC50 came out at 0.016 µM against IRAK4 [1] and 0.005 µM at IRAK4 [2].
Taken in the same sequence, the figures for `CCOc1cc2nc(C3CCN(C)C3=O)cn2cc1NC(=O)c1cccc(C(F)F)n1` (stereo not drawn) [Example 156, 6-(difluoromethyl)-N-(7-ethoxy-2-(1-methyl-2-oxopyrrolidin-3-yl)imidazo[1,2-a]pyridin-6-yl)picolinamide] were 0.003 µM and 0.001 µM.
The corresponding values for `CCOc1cc2nc(CC3CCOC3)cn2cc1NC(=O)c1coc(C)n1` (stereo not drawn) [Example 159, N-(7-ethoxy-2-((tetrahydrofuran-3-yl)methyl)imidazo[1,2-a]pyridin-6-yl)-2-methyloxazole-4-carboxamide] are 0.051 µM and 0.006 µM.
For `CCOc1cc2nc(C3(C#N)CCOCC3)cn2cc1NC(=O)c1cccc(C(F)F)n1` [Example 160, N-(2-(4-cyanotetrahydro-2H-pyran-4-yl)-7-ethoxyimidazo[1,2-a]pyridin-6-yl)-6-(difluoromethyl)picolinamide], the half-inhibitory concentration (IC50) on IRAK4 [1] is 0.002 µM; on IRAK4 [2] it was 0.001 µM.
As for `CC1(COc2cc3nc(CC4CCOC4)cn3cc2NC(=O)c2cccc(C(F)(F)F)n2)COC1` (stereo not drawn) [Example 163, N-(7-((3-methyloxetan-3-yl)methoxy)-2-((tetrahydrofuran-3-yl)methyl)imidazo[1,2-a]pyridin-6-yl)-6-(trifluoromethyl)picolinamide], the IC50 is 0.007 µM against IRAK4 [1] and 0.002 µM against IRAK4 [2].
As to `CC1(COc2cc3nc(C4CCOCC4)cn3cc2NC(=O)c2cccc(C(F)(F)F)n2)COC1` [Example 166, N-(7-((3-methyloxetan-3-yl)methoxy)-2-(tetrahydro-2H-pyran-4-yl)imidazo[1,2-a]pyridin-6-yl)-6-(trifluoromethyl)picolinamide], the 50% inhibitory concentration (IC50) against IRAK4 [1] came out at 0.009 µM; on IRAK4 [2], 0.002 µM.
With `CCOc1cc2nc(C(O)C3CC3)cn2cc1NC(=O)c1cccc(C(F)(F)F)n1` (stereo not drawn) [Example 168, N-(2-(cyclopropyl(hydroxy)methyl)-7-ethoxyimidazo[1,2-a]pyridin-6-yl)-6-(trifluoromethyl)picolinamide], the figures for the IC50 against IRAK4 [1] and on IRAK4 [2] were 0.015 µM and 0.007 µM, respectively.
Taken in the same sequence, the figures for `N#CCOc1cc2nc(C3CCOCC3)cn2cc1NC(=O)c1cccc(C(F)F)n1` [Example 172, N-(7-(cyanomethoxy)-2-(tetrahydro-2H-pyran-4-yl)imidazo[1,2-a]pyridin-6-yl)-6-(difluoromethyl)picolinamide] were 0.004 µM and 0.002 µM.
With `CC(C#N)Oc1cc2nc(C3CCOCC3)cn2cc1NC(=O)c1cccc(C(F)F)n1` (stereo not drawn) [Example 173, N-(7-(1-cyanoethoxy)-2-(tetrahydro-2H-pyran-4-yl)imidazo[1,2-a]pyridin-6-yl)-6-(difluoromethyl)picolinamide], the half-maximal inhibitory concentration (IC50) against IRAK4 [1] and at IRAK4 [2] was 0.001 µM each time.
In the case of `CC1CCC(Oc2cc3nc(C4CCOCC4)cn3cc2NC(=O)c2cccc(C(F)F)n2)C1` (stereo not drawn) [Example 178, 6-(difluoromethyl)-N-(7-((3-methylcyclopentyl)oxy)-2-(tetrahydro-2H-pyran-4-yl)imidazo[1,2-a]pyridin-6-yl)picolinamide], the half-inhibitory concentration (IC50) against IRAK4 [1] and against IRAK4 [2] was 0.001 µM throughout.
In the case of `N#CC1CCC(Oc2cc3nc(C4CCOCC4)cn3cc2NC(=O)c2cccc(C(F)F)n2)C1` (stereo not drawn) [Example 179, N-(7-((3-cyanocyclopentyl)oxy)-2-(tetrahydro-2H-pyran-4-yl)imidazo[1,2-a]pyridin-6-yl)-6-(difluoromethyl)picolinamide], the IC50 against IRAK4 [1] and against IRAK4 [2] was 0.001 µM each time.
Turning to `CC1(C)CCC(Oc2cc3nc(C4CCOCC4)cn3cc2NC(=O)c2cccc(C(F)F)n2)C1` (stereo not drawn) [Example 180, 6-(difluoromethyl)-N-(7-((3,3-dimethylcyclopentyl)oxy)-2-(tetrahydro-2H-pyran-4-yl)imidazo[1,2-a]pyridin-6-yl)picolinamide], the IC50 against IRAK4 [1] and on IRAK4 [2] was 0.001 µM throughout.
Regarding `CN1CCC(Oc2cc3nc(C4CCOCC4)cn3cc2NC(=O)c2cccc(C(F)F)n2)C1=O` (stereo not drawn) [Example 181, 6-(difluoromethyl)-N-(7-((1-methyl-2-oxopyrrolidin-3-yl)oxy)-2-(tetrahydro-2H-pyran-4-yl)imidazo[1,2-a]pyridin-6-yl)picolinamide], the IC50 against IRAK4 [1] came out at 0.002 µM; against IRAK4 [2] it was 0.001 µM.
For `O=C(Nc1cn2cc(C3CCOCC3)nc2cc1OC1COC1)c1cccc(C(F)F)n1` [Example 182, 6-(difluoromethyl)-N-(7-(oxetan-3-yloxy)-2-(tetrahydro-2H-pyran-4-yl)imidazo[1,2-a]pyridin-6-yl)picolinamide], the IC50 on IRAK4 [1] was 0.004 µM; against IRAK4 [2], 0.001 µM.
Taken in the same sequence, the figures for `CC1(C)CC(Oc2cc3nc(C4CCOCC4)cn3cc2NC(=O)c2cccc(C(F)F)n2)CO1` (stereo not drawn) [Example 184, 6-(difluoromethyl)-N-(7-((5,5-dimethyltetrahydrofuran-3-yl)oxy)-2-(tetrahydro-2H-pyran-4-yl)imidazo[1,2-a]pyridin-6-yl)picolinamide] were 0.002 µM and 0.001 µM.
The corresponding values for `O=C(Nc1cn2cc(C3CCOCC3)nc2cc1OC1CCOCC1)c1cccc(C(F)F)n1` [Example 185, 6-(difluoromethyl)-N-(2-(tetrahydro-2H-pyran-4-yl)-7-((tetrahydro-2H-pyran-4-yl)oxy)imidazo[1,2-a]pyridin-6-yl)picolinamide] are 0.002 µM and 0.001 µM.

The term IC50 denotes the point on the concentration scale where inhibition reaches its midpoint.
